Source: patent publication US20140039044A1, “Hydroxylated Polymethoxyflavone Compositions” (WLLGEN, INC., priority 2006, published 2014)
pIC50: −log10 of the molar value.

Tests used:
Assay type in all cases: cell-based, human
HL-60 cells = assay: Cell cycle distribution by flow cytometry; conditions: 24 h
Method: (§1) The human cancer cells (2×10^5) were cultured in 60-mm Petri dishes and incubated for 24 h. After treated with test compounds for 24 h, the cells were then harvested, washed with PBS resuspended in 200 μL of PBS, and fixed in 800 μL of iced 100% ethanol at −20° C. After being left to stand overnight, the cell pellets were collected by centrifugation, resuspended in 1 mL of hypotonic buffer (0.5% Triton X-100 in PBS and 0.5 μg/mL RNase) and incubated at 37° C. for 30 min. Next, 1 mL of propidium iodide solution (50 μg/mL) was added, and the mixture was allowed to stand on ice for 30 min. Fluorescence emitted from the propidium iodide-DNA complex was quantitated after excitation of the fluorescent dye by FACScan cytometry (Becton Dickinson, San Jose, Calif.).
The effects of the hydrolyzed PMF-enriched compositions, nobiletin and 70% PMF OPE on cell cycle distribution were studied, following the procedures described in Section 8.4. Results for cell cycle distribution in HL-60 cells, COLO205 cells and AGS cells are provided in Table 5, Table 6 and Table 7, respectively. […] In HL-60 cells, G2/M arrest predominated in cells treated with 6N PMF concentrations ≧5 μM and with 1N PMF concentrations ≧25 μM.
(§2) Compounds A-K were evaluated in terms of their effects in arresting cell cycle progression by observing cell cycle phase distribution in cells treated with the compounds. Cells were treated with 5, 10, 25, 50, and 100 μM of one of compound A-K or DMSO (control) for 24 h and subjected to flow cytometric analysis after staining their DNA, as described above.

HT-29 cells [1] = assay: Cell cycle distribution by flow cytometry; conditions: for Cell Cycle Distribution G0/G1 / Cell Cycle Distribution G2/M / Cell Cycle Distribution S: 24 h
Method: as §1, §2
Similar cell cycle phase distribution studies were performed in AGS, COLO205, and HT-29 cells in response to individual PMFs, with results reported in Tables 11, 12 and 13, respectively.

HT-29 cells [2] = assay: Cell survival assay (antiproliferative IC50); conditions: Homo sapiens
Method: Human colon carcinoma COLO205 and HT-29 cell lines (American Type Culture Collection (ATTC), Manassas, Va.) and the leukemia cell line HL-60 were maintained at 37° C. in 5% CO2 air in RPMI 1640 medium supplemented with 10% heat-inactivated fetal bovine serum (Gibco BRL, Grand Island, N.Y.), 100 units/mL penicillin, 100 μg/mL streptomycin and 2 mM 1-glutamine. The human gastric carcinoma AGS cell line (CCRC 60102), obtained from the Food Industry Research and Development Institute (Hsinchu, Taiwan), was maintained as described above, except that DMEM/F 12 was used as the medium rather than the RPMI 1640 medium. The human breast carcinoma MCF-7 cell line MCF-7 (ATTC) was cultured in RPMI 1640 medium supplemented with 5% fetal calf serum at 37° C. in a humidified atmosphere of 5% CO2 in air. The mouse macrophage cell line RAW 264.7 was maintained in RPMI 1640 supplemented with 100 U/ml penicillin, 100 μg/ml streptomycin, and 10% heat-inactivated fetal calf serum.
Cancer cells (2×10^5) were plated in 12-well Petri dishes. The next day, the medium was changed and treated with different concentration of the test compounds or compositions for 24 h. Where individual compounds were to be tested, stock solutions of the compound was prepared to contain 200 μM of the individual hydroxylated or non-hydroxylated PMF in dimethylsulfoxide (DMSO). Control cells were treated with DMSO to a final concentration of 0.05% (v/v). Depending on the objective of the particular experiment, cells were treating with test compound or composition for 1, 3 or 6 days. At the end of incubation, cells were harvested for cell count using a hemocytometer and measuring the cellular total nucleic acid content with the CyQUANT Cell Proliferation Assay Kit (Molecular Probes).
The PMF compounds were assayed in vitro for cell growth inhibition and for their ability to induce apoptosis in various human cancer cells, including HL-60, AGS, COLO 205, and HT-29 cells, using methods described in Section 8.4 above. Antiproliferative (IC50) and apoptosis-inducing activity (AC50) of PMFs in the HL-60, AGS, COLO 205, and HT-29 cells are reported in Table 9, where *P<0.05, **P<0.01 and ***P<0.001 indicate statistically significant differences from the control group.

SMILES: COc1ccc(-c2cc(=O)c3c(OC)c(OC)c(OC)c(OC)c3o2)cc1OC [Compound A, 5,6,7,8,3′,4′-hexamethoxyflavone, reference compound]
- Cell Cycle Distribution G0/G1 (HL-60 cells; 5 μM, Table 5): 45.81 ± 0.16
- Cell Cycle Distribution G2/M (HL-60 cells; 5 μM, Table 5): 0.02 ± 0.01
- Cell Cycle Distribution S (HL-60 cells; 5 μM, Table 5): 54.29 ± 0.01
- Cell Cycle Distribution G0/G1 (HL-60 cells; 5 μM, Table 10): 41.42 ± 0.14
- Cell Cycle Distribution G2/M (HL-60 cells; 5 μM, Table 10): 8.15 ± 0.49
- Cell Cycle Distribution S (HL-60 cells; 5 μM, Table 10): 50.73 ± 0.42
- Cell Cycle Distribution G0/G1 (HL-60 cells; 10 μM, Table 5): 53.84 ± 0.45
- Cell Cycle Distribution G2/M (HL-60 cells; 10 μM, Table 5): 5.73 ± 1.50
- Cell Cycle Distribution S (HL-60 cells; 10 μM, Table 5): 40.44 ± 1.06
- Cell Cycle Distribution G0/G1 (HL-60 cells; 10 μM, Table 10): 50.36 ± 1.06
- Cell Cycle Distribution G2/M (HL-60 cells; 10 μM, Table 10): 2.75 ± 0.57
- Cell Cycle Distribution S (HL-60 cells; 10 μM, Table 10): 46.88 ± 0.28
- Cell Cycle Distribution G0/G1 (HL-60 cells; 25 μM, Table 5): 61.96 ± 3.55
- Cell Cycle Distribution G2/M (HL-60 cells; 25 μM, Table 5): 5.93 ± 0.49
- Cell Cycle Distribution S (HL-60 cells; 25 μM, Table 5): 32.12 ± 4.04
- Cell Cycle Distribution G0/G1 (HL-60 cells; 25 μM, Table 10): 66.18 ± 0.71
- Cell Cycle Distribution G2/M (HL-60 cells; 25 μM, Table 10): 2.77 ± 0.85
- Cell Cycle Distribution S (HL-60 cells; 25 μM, Table 10): 31.06 ± 0.99
- Cell Cycle Distribution G0/G1 (HL-60 cells; 50 μM, Table 5): 62.37 ± 1.85
- Cell Cycle Distribution G2/M (HL-60 cells; 50 μM, Table 5): 6.44 ± 0.08
- Cell Cycle Distribution S (HL-60 cells; 50 μM, Table 5): 31.20 ± 1.76
- Cell Cycle Distribution G0/G1 (HL-60 cells; 50 μM, Table 10): 64.40 ± 0.49
- Cell Cycle Distribution G2/M (HL-60 cells; 50 μM, Table 10): 7.67 ± 0.57
- Cell Cycle Distribution S (HL-60 cells; 50 μM, Table 10): 27.93 ± 0.35
- Cell Cycle Distribution G0/G1 (HL-60 cells; 100 μM, Table 5): 65.00 ± 3.41
- Cell Cycle Distribution G2/M (HL-60 cells; 100 μM, Table 5): 4.18 ± 0.33
- Cell Cycle Distribution S (HL-60 cells; 100 μM, Table 5): 30.81 ± 3.08
- Cell Cycle Distribution G0/G1 (HL-60 cells; 100 μM, Table 10): 62.05 ± 0.14
- Cell Cycle Distribution G2/M (HL-60 cells; 100 μM, Table 10): 7.35 ± 0.14
- Cell Cycle Distribution S (HL-60 cells; 100 μM, Table 10): 30.60 ± 0.35
- Cell cycle arrest, in words (HL-60 cells; 25-100 μM): significant G1 arrest
- Cell Cycle Distribution G0/G1 (HT-29 cells [1]; 5 μM): 63.67 ± 0.14
- Cell Cycle Distribution G2/M (HT-29 cells [1]; 5 μM): 8.22 ± 0.37
- Cell Cycle Distribution S (HT-29 cells [1]; 5 μM): 28.12 ± 0.52
- Cell Cycle Distribution G0/G1 (HT-29 cells [1]; 10 μM): 66.57 ± 0.66
- Cell Cycle Distribution G2/M (HT-29 cells [1]; 10 μM): 7.45 ± 0.28
- Cell Cycle Distribution S (HT-29 cells [1]; 10 μM): 26.98 ± 0.94
- Cell Cycle Distribution G0/G1 (HT-29 cells [1]; 25 μM): 69.67 ± 1.15
- Cell Cycle Distribution G2/M (HT-29 cells [1]; 25 μM): 7.58 ± 0.00
- Cell Cycle Distribution S (HT-29 cells [1]; 25 μM): 22.76 ± 1.15
- Cell Cycle Distribution G0/G1 (HT-29 cells [1]; 50 μM): 83.26 ± 0.46
- Cell Cycle Distribution G2/M (HT-29 cells [1]; 50 μM): 4.97 ± 0.67
- Cell Cycle Distribution S (HT-29 cells [1]; 50 μM): 11.79 ± 1.13
- Cell Cycle Distribution G0/G1 (HT-29 cells [1]; 100 μM): 89.49 ± 0.57
- Cell Cycle Distribution G2/M (HT-29 cells [1]; 100 μM): 5.60 ± 0.57
- Cell Cycle Distribution S (HT-29 cells [1]; 100 μM): 4.92 ± 0.00
- Cell cycle arrest, in words (HT-29 cells [1]; 5-100 μM, 24 h exposure): significant accumulation of cells in G1 phase
- pIC50 (HT-29 cells [2]): < 4.00
